In paper PMC5007486, “Thermodynamic instability of viral proteins is a pathogen-associated molecular pattern targeted by human defensins” (Scientific Reports, 2016):
Where no end group is shown, it is not given here.

Columns and labels:
TEV Protease [1] = tested on: TEV Protease; set-up: species or system tobacco etch virus (TEV); conditions: 10 μM protein; HNP-1 20 and 50 μM or RC-101 30 and 60 μM; 30 min, […] °C, pH 7.5, 100 mM NaCl; 280,000 g, SDS-PAGE
Protocol: Precipitation of HIV-1 MA, HIV-1 CA, and TEV protease was assessed by differential ultracentrifugation. […] All samples were centrifuged using TLA-100 rotor in Optima TL-100 ultracentrifuge (Beckman Coulter) at 280,000 g for 30 min at 4 °C. The supernatant (soluble) and pellet (precipitated) fractions were collected, supplemented with 1/3rd of the volume of 4x reducing sample buffer (200 mM Tris, pH 6.8, 40% glycerol, 8% SDS, 400 mM β-mercaptoethanol, 0.4% bromophenol blue), pellets resuspended, and samples resolved on SDS-PAGE.

gp41 [2] = conditions: cited from earlier work
HIV-1 MA = conditions: 10 μM MA, 3-fold molar excess HNP-1, chymotrypsin (1:100 w/w) or thermolysin (1:200 w/w), 37 °C, 20 mM HEPES pH 7.5, 100 mM NaCl, 5 mM CaCl2, SDS-PAGE
Protocol: (§3) Briefly, viral proteins (5–10 μM) were mixed with 3-fold molar excess of HNP-1 (i.e. 15–30 μM) in a 20 mM HEPES buffer (pH 7.5) supplemented with 100 mM NaCl and 5 mM CaCl2. […] The reactions were stopped by adding reducing sample buffer (50 mM Tris, pH 6.8, 10% glycerol, 2% sodium dodecyl sulfate (SDS), 100 mM β-mercaptoethanol, 0.1% bromophenol blue) supplemented with 2 mM phenylmethylsulfonyl fluoride (PMSF) and 10 mM ethylenediaminetetraacetic acid (EDTA) and boiling for 5 min. The protein samples were resolved on SDS-PAGE.

gp41 [3] = conditions: cited from earlier work; remark: listed apart in the source
TEV Protease [4] = type: binding, tobacco etch virus (TEV); conditions: DSF
Excerpt: (§1) Differential scanning fluorimetry (DSF)

HIV-1 CA [5] = conditions: 10 μM CA, 3-fold molar excess HNP-1, chymotrypsin (1:100 w/w) or thermolysin (1:200 w/w), 37 °C, 20 mM HEPES pH 7.5, 100 mM NaCl, 5 mM CaCl2, SDS-PAGE
Protocol: as §3

HSV = tested on: HSV; set-up: method as in PMID 17142766; conditions: cited from earlier work
HIV-1 = conditions: cited from earlier work
TEV Protease [6] = type: biochemical, tobacco etch virus (TEV); conditions: disulfide bonds reduced with 10 mM TCEP, one hour pre-incubation at room temperature
Protocol: TEV protease activity assay
The reactions were stopped by boiling in reducing sample buffer; proteolytic products were resolved on SDS-PAGE. For reducing condition experiments, the reaction buffer was supplemented with 10 mM tris(2-carboxyethyl)phosphine (TCEP) and the defensins were pre-incubated with 10 mM TCEP for one hour at room temperature before co-incubation with the TEV protease. Note, the ammonium salt of TCEP (Sigma #646547) used in this study has neutral pH (7.0). Care was taken to verify that the final pH of the working solutions was not changed after the addition of TCEP.

HIV-1 IN [7] = conditions: HTRF; IN 400 nM; defensin 1–10 μM, 30 min room temperature; strand transfer three hours 37 °C, pH 7.5
Protocol: Homogenous time-resolved fluorescence (HTRF)-based integration activity assay
To test the HIV-1 integrase (IN) activity in the presence and absence of defensins, previously developed HTRF technique[41][42] was used with some modifications. […] Following the incubation with the defensins, a 5′-Cy5-labelled 21-mer viral donor DNA (200 nM) and 3′-biotinylated target DNA (20 nM) were added to the reaction. […] 0.5 M NaCl (final concentration in the development solution) allows dissociating of all DNA from IN to prevent FRET signal from non-covalently associated donor and target DNA. Following an overnight incubation at 4 °C, the HTRF signal was recorded with an EnSpire multimode plate reader (PerkinElmer).

PFV IN [8] = tested on: PFV IN; set-up: species or system prototype foamy virus (PFV); conditions: 5 μM PFV IN, 3-fold molar excess HNP-1, chymotrypsin (1:100 w/w) or thermolysin (1:200 w/w), 37 °C, 20 mM HEPES pH 7.5, 100 mM NaCl, 5 mM CaCl2, SDS-PAGE
Protocol: Limited proteolysis was conducted as described previously. […] The protein samples were resolved on SDS-PAGE.

[9] = tested on: Gram-negative and Gram-positive bacteria; conditions: reduction of disulfide bonds; cited from earlier work
Excerpt: (§2) Three characteristic disulfide bonds stabilize the defensins’ structure and are essential for some, but not all functions of the peptides. […] This is likely because the preserved defensin structure is required in the later case, when the cell wall synthesis machinery is targeted, but not in the former case, when defensins directly affect membranes of Gram-negative bacteria. In contrast, reduction of disulfi ...

[10] = cited from earlier work
Excerpt: as §2

chemokine receptor CCR6 = tested on: chemokine receptor CCR6; set-up: method as in PMID 12840147; conditions: binding and activation of CCR6; cited from earlier work
[11] = tested on: Actin Crosslinking Domain (ACD); type: binding, Vibrio cholerae; conditions: 5-molar excess of peptide to the toxin
HIV-1 Gag-Δp6 = conditions: DSF, 5-fold molar excess of cyclotide
Protocol: (§4) Viral protein samples (5–20 μM) in a 20 mM 4-(2-hydroxyethyl)-1-piperazineethanesulfonic acid (HEPES) buffer (pH 7.5) supplemented with 150 mM NaCl and 1x SYPRO Orange dye (Invitrogen) were subjected to temperature denaturation in the absence or presence of defensins. […] Temperature melting profiles were acquired with a CFX96 Touch Real-Time PCR Detection System (Bio-Rad). Melting temperatures for proteins alone and in the presence of different defensins were calculated as described previously[76].

HIV-1 IN [12] = conditions: DSF, 5-fold molar excess of cyclotide
Protocol: as §4

HIV-1 CA [13] = conditions: DSF, 5-fold molar excess of cyclotide
Protocol: as §4

PFV IN [14] = type: binding, prototype foamy virus (PFV); conditions: DSF, 5-fold molar excess of cyclotide
Excerpt: as §1

serine protease = tested on: serine protease; set-up: method as in PMID 23171075; conditions: greatly increased with elevated temperature; cited from earlier work
dengue virus DENV-2 = tested on: dengue virus DENV-2; set-up: method as in PMID 23171075; conditions: activity greatly increased with elevated temperature; cited from earlier work
[15] = tested on: gp41-derived peptide mixture of N36/C34; set-up: method as in PMID 16648135; conditions: cited from earlier work
Ad5.F35 capsid = conditions: CryoEM; with signs of local disorganization of hexon, penton base, fiber; cited from earlier work
Excerpt: It is likely that the potent destabilizing effects imposed by defensins are pertinent at numerous physiological occasions and particularly upon dynamic structural transitions in the course of capsid assembly, uncoating, and membrane fusion. Yet, we are far from proposing that the destabilization of purified viral proteins by defensins observed in vitro accurately represents the complexity of physiological conditions including, but not limited to, interactions of viral proteins with each other, viral nucleic acids, and host proteins. Thus, in apparent contradiction with our resu ...

HNP-1: human neutrophil α-defensin peptide HNP-1, prepared by solid-phase peptide synthesis
Precipitation of TEV protease (TEV Protease [1]): dose-dependent precipitation
Refolding lifetime of gp41 intermediates in pre-hairpin conformation (gp41 [2]): prolong refolding lifetime of gp41 intermediates in pre-hairpin conformation
Detectable amounts of cleaved products of HIV-1 MA (HIV-1 MA): drastic reduction in the detectable amounts of cleaved products
Refolding of gp41 into 6-helix bundle (gp41 [3]): impaired refolding of gp41 into the 6-helix bundle structure triggering their aggregation
Ability to promote unfolding of TEV protease, reducing conditions (TEV Protease [4]; disulfide bonds reduced with 10 mM TCEP): complete loss
Detectable amounts of cleaved products of HIV-1 CA (HIV-1 CA [5]): drastic reduction in the detectable amounts of cleaved products
HSV infection (HSV): inhibit HIV-1 and HSV infections at multiple steps
HIV-1 infection (HIV-1): inhibit HIV-1 and HSV infections at multiple steps
Ability to inhibit proteolytic activity of TEV protease, reducing conditions (TEV Protease [6]): complete loss
Strand transfer activity of HIV-1 IN (HIV-1 IN [7]): inhibited the strand transfer activity of IN
Detectable amounts of cleaved products of PFV IN (PFV IN [8]): drastic reduction in the detectable amounts of cleaved products

hBD-1: human β-defensin hBD-1, prepared by solid-phase peptide synthesis (DHYNCVSSGGQCLYSACPIFTKIQGTCYRGKAKCCK; ends and bridges not checked; cysteine pairing not given here; UniProt P60022 33-68, looked up)
Effect on thermal melting of TEV protease, reducing conditions (TEV Protease [4]; reduced β-defensin, 10 mM TCEP): had no effect on thermal melting
Effect of disulfide reduction on antimicrobial activity [9]: activates hBD-1 antimicrobial activity against both Gram-negative and Gram-positive bacteria

hBD-3: human beta-defensin 3 (GIINTLQKYYCRVRGGRCAVLSCLPKEEQIGKCSTRGRKCCRRKK; ends and bridges not checked; cysteine pairing not given here; UniProt P81534 23-67, looked up)
Need of disulfide bonds for antimicrobial activity [10]: dispensable for its antimicrobial activity
Need of disulfide bonds for chemotactic activity (chemokine receptor CCR6): required for its chemotactic activity

kalata B1 [kB1]
Unfolding / DSF thermal denaturation profile of ACD toxin [11]: none of the four cyclotides used in this study (cyO2, cyO19, kB1, and kB7) demonstrated an ability to potentiate unfolding
Ability to potentiate unfolding of TEV protease (TEV Protease [4]; 5-fold molar excess of cyclotide): none of the four cyclotides used in this study (cyO2, cyO19, kB1, and kB7) demonstrated an ability to potentiate unfolding
Ability to potentiate unfolding of HIV-1 Gag-Δp6 (HIV-1 Gag-Δp6): none of the four cyclotides used in this study (cyO2, cyO19, kB1, and kB7) demonstrated an ability to potentiate unfolding
Ability to potentiate unfolding of HIV-1 IN (HIV-1 IN [12]): none of the four cyclotides used in this study (cyO2, cyO19, kB1, and kB7) demonstrated an ability to potentiate unfolding
Ability to potentiate unfolding of HIV-1 CA (HIV-1 CA [13]): none of the four cyclotides used in this study (cyO2, cyO19, kB1, and kB7) demonstrated an ability to potentiate unfolding
Ability to potentiate unfolding of PFV IN (PFV IN [14]): none of the four cyclotides used in this study (cyO2, cyO19, kB1, and kB7) demonstrated an ability to potentiate unfolding

retrocyclin-1 [RC-1]
Refolding of gp41 into 6-helix bundle (gp41 [3]): impaired refolding of gp41 into the 6-helix bundle structure triggering their aggregation
DENV-2 serine protease activity (serine protease): interfering with the activity of its serine protease
Dengue virus DENV-2 replication (dengue virus DENV-2): inhibits dengue virus DENV-2 replication
Circular dichroism spectrum of N36/C34 [15]: transformed into a random coil-like spectrum

B1: HD-5: human enteric α-defensin HD-5, prepared by solid-phase peptide synthesis (peptide, UniProt Q01523 20-94, looked up)
Defensin alpha 5: ESLQERADEATTQKQSGEDNQDLAISFAGNGLSALRTSGSQARATCYCRTGRCATRESLSGVCEISGRLYRLCCR
modifications: Defensin-5
notes: human enteric α-defensin HD-5, prepared by solid-phase peptide synthesis
Stability of Ad5.F35 capsid (Ad5.F35 capsid): overall stabilization of Ad5.F35 capsid
